PubChem BioAssay AID1949 (Southern Research Institute, 2009)
In brackets after ≈: the same amount, converted by molar mass. Inconclusive results are not listed. Activity calls are given as the source filed them. How the calls were made is not given here.

Test system: M. tuberculosis H37Rv growth inhibition
Assay: Mycobacterium tuberculosis H37Rv growth inhibition, cell based, confirmatory dose response (AID 1949);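 further: bacteria grown 7 days with compound before Alamar blue readout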

SMILES	IC50
Cc1cccc(OCC(O)CN2CCN(C(c3ccccc3)c3ccccc3)CC2)c1C (stereo not drawn)	2.94 µg/mL (≈ 6.83 µM)
CC(C)(C)c1cc(Cl)ccc1OCCn1ccnc1	1.94 µg/mL (≈ 6.96 µM)
Cn1nc(-c2ccc(N3CCCCC3)c(NC(=O)c3ccco3)c2)c2ccccc2c1=O	> 50 µg/mL (inactive)
O=[N+]([O-])c1nn(-c2ccccc2)n(O)c1=NC1CCCC1	39.3 µg/mL (≈ 136 µM)
CCC(C)c1ccc(OCC(=O)Nc2ccc(OC)c([N+](=O)[O-])c2)cc1 (stereo not drawn)	1.61 µg/mL (≈ 4.49 µM)
O=C(Nc1ccc(OCC(F)(F)C(F)F)c(C(F)(F)F)c1)c1ccccc1O	5.26 µg/mL (≈ 12.8 µM)
O=C1C=C(c2ccccc2)C(=O)c2ccccc21	2.68 µg/mL (≈ 11.4 µM)
CCOC(=O)COc1ccc(S(=O)(=O)Nc2cccc(Cl)c2C)cc1	3.03 µg/mL (≈ 7.89 µM)
COc1ccc(C2=CC(=O)c3ccccc3C2=O)cc1	3.53 µg/mL (≈ 13.4 µM)
CNc1nc(N2CCc3ccccc32)ncc1F	0.91 µg/mL (≈ 3.73 µM)
c1ccc(-c2nnc3sc(-c4cc5ccccc5o4)nn23)cc1	4.89 µg/mL (≈ 15.4 µM)
COc1ccc(-c2cc(C(F)F)n3ncc(C(=O)NCCCn4ccnc4)c3n2)cc1	8.99 µg/mL (≈ 21.1 µM)
O=C(Nc1ccc(Br)c(Cl)c1)c1ccc(F)cc1	15.7 µg/mL (≈ 47.8 µM)
CCOC(=O)c1c2c(n(C)c1CN(CC)CC)C(=O)C(=O)c1ccc(Br)cc1-2	0.17 µg/mL (≈ 0.38 µM)
COC(=O)c1ccc(COC(=O)c2ccc(Cl)cc2)cc1	> 50 µg/mL (inactive)
CC(C)(C)NC(=O)c1cc2cc([N+](=O)[O-])ccc2oc1=O	1.48 µg/mL (≈ 5.1 µM)
Cc1ccc(N2C(=O)CC(Sc3ccccc3C(=O)Nc3ccccc3)C2=O)cc1 (stereo not drawn)	4.92 µg/mL (≈ 11.8 µM)
CC(=O)c1c(C)n([O-])c2cc(Cl)c(Cl)cc2[n+]1=O	5.48 µg/mL (≈ 19.1 µM)
O=C(Nc1cccc(Cl)c1)Nc1ccc(N2CCOCC2)c(C(F)(F)F)c1	3.59 µg/mL (≈ 8.98 µM)
CC(=O)Oc1cccc2ccc(/C=C/c3c(F)cccc3Cl)nc12	< 0.1 µg/mL
Cc1ccc(-c2csc3nc4c5ccccc5c(NCCCN5CCOCC5)nn4c(=O)c23)cc1	> 50 µg/mL (inactive)
O=C(CC(O)(C(F)(F)F)C(F)(F)F)Nc1cc(Cl)ccc1Cl	5.84 µg/mL (≈ 15.8 µM)
O=C(/C=C/c1cccc(C(F)(F)F)c1)Nc1cccc(Br)c1	1.39 µg/mL (≈ 3.76 µM)
CCN(CC)CCNc1nc(-c2cccc(Cl)c2)nc2ccccc12	46 µg/mL (≈ 130 µM)

SMILES	IC50
Cn1nc([N+](=O)[O-])nc1Sc1nnc(-c2cccnc2)o1	2.49 µg/mL (≈ 8.16 µM)
COC(=O)Cc1c(C)c2ccc(OCC(=O)OCc3ccccc3)c(C)c2oc1=O	0.11 µg/mL (≈ 0.268 µM)
Oc1ccccc1-c1n[nH]c(/C=C/c2ccc(Cl)cc2)n1	2.73 µg/mL (≈ 9.17 µM)
Cc1cc2ncn(CCCCOc3ccccc3)c2cc1C	4.6 µg/mL (≈ 15.6 µM)
COC(=O)c1ccc2nc(C)cc(Nc3ccc(OCc4ccccc4)cc3)c2c1	1.2 µg/mL (≈ 3.01 µM)
CCN(CC)c1ncnc2c1sc1nc(C)cc(C)c12	> 50 µg/mL (inactive)
c1ccc(CCNc2nc3ccccc3[nH]2)cc1	2.94 µg/mL (≈ 12.4 µM)
Cc1ccc(-c2nc(NC(=O)C34CC5CC(CC(C5)C3)C4)sc2C)cc1	> 50 µg/mL (inactive)
COCc1nc2ccccc2n1CCCOc1ccc(C)cc1	8.25 µg/mL (≈ 26.6 µM)
O=C(CC12CC3CC(CC(C3)C1)C2)Nc1cccc(C(F)(F)F)c1	0.97 µg/mL (≈ 2.88 µM)
CN(C)c1ccc(Nc2nc(-c3ccc(O)cc3O)cs2)cc1	1.54 µg/mL (≈ 4.7 µM)
COC(=O)c1c(NC(=O)c2c(F)c(F)c(F)c(F)c2F)sc2c1CCCCC2	0.36 µg/mL (≈ 0.858 µM)
Cc1ccc(-c2csc3nc(SCC(N)=O)n(-c4ccccc4)c(=O)c23)cc1C	2.98 µg/mL (≈ 7.07 µM)
CCOC(=O)N1CCN(CCC(=O)c2ccc(Cl)cc2)CC1	2.45 µg/mL (≈ 7.54 µM)
C=CCCCCCCCCC(=O)Nc1ccccc1C	8.62 µg/mL (≈ 31.5 µM)
CCOC(=O)C1=C(c2ccc(OC)cc2)C(=O)c2ccccc2C1=O	6.6 µg/mL (≈ 19.6 µM)
COC(=O)COc1ccc2c(=O)c(Oc3ccccc3OC)c(C)oc2c1	1.39 µg/mL (≈ 3.75 µM)
CCC(=O)Oc1ccc(C(=O)Nc2cc3oc4ccccc4c3cc2OC)cc1	1.46 µg/mL (≈ 3.75 µM)
CC(=O)Oc1cccc2ccc(/C=C/c3ccc(F)cc3)nc12	< 0.1 µg/mL
CC1CCCc2sc(NC(=S)NC(=O)c3ccccc3)c(C#N)c21 (stereo not drawn)	0.94 µg/mL (≈ 2.64 µM)
Cc1c(Cl)c(C(F)(F)F)nn1CCCNC(=S)NCc1ccc(Cl)cc1	11.2 µg/mL (≈ 26.2 µM)
CC(=O)c1cccc(-n2nnnc2S(C)(=O)=O)c1	2.75 µg/mL (≈ 10.3 µM)
CS(=O)(=O)c1ncc(Cl)c(C(=O)Nc2cc(C(F)(F)F)ccc2Cl)n1	17.1 µg/mL (≈ 41.3 µM)
COc1ccc2nc(/C(C#N)=C\c3ccc(SC)cc3)[nH]c2c1	7.56 µg/mL (≈ 23.5 µM)

SMILES	IC50
Cc1ccc(-c2csc3ncn(C(C)C(=O)OC4CCCCC4)c(=O)c23)cc1C (stereo not drawn)	1.52 µg/mL (≈ 3.7 µM)
COc1cccc(C(=O)NC(=S)Nc2ccc(N3CCN(C(=O)c4cccs4)CC3)c(Cl)c2)c1	0.76 µg/mL (≈ 1.48 µM)
CCOC(=O)Cn1cc(/C=C(/C#N)c2nc3ccc(OC)cc3[nH]2)c2ccccc21	0.74 µg/mL (≈ 1.85 µM)
CCOC(=O)C1=C(C)N=c2s/c(=C\c3ccc([N+](=O)[O-])o3)c(=O)n2C1c1ccc(OCC)cc1 (stereo not drawn)	> 50 µg/mL (inactive)
CCOC(=O)COc1ccc(S(=O)(=O)N2CCC(C)CC2)cc1	1.35 µg/mL (≈ 3.95 µM)
O=C(Nc1ccc(F)c(Cl)c1)c1ccc([N+](=O)[O-])o1	< 0.1 µg/mL
Cc1oc2ccc(OCC(=O)OCc3ccccc3)cc2c1C(=O)OC(C)C	9.08 µg/mL (≈ 23.7 µM)
CC(=O)Oc1cccc2ccc(/C=C/c3ccc(Cl)cc3)nc12	< 0.1 µg/mL
Cc1cc(C(C)(C)C)ccc1OCCOCCn1ccnc1	2.93 µg/mL (≈ 9.69 µM)
CC(=O)Oc1ccc2nc(-c3ccc(C)c(C)c3)oc(=O)c2c1	> 50 µg/mL (inactive)
CCC(C)c1ccc(OCCCCn2ccnc2)cc1 (stereo not drawn)	1.12 µg/mL (≈ 4.11 µM)
COc1c2ccoc2nc2c(OC)cccc12	1.76 µg/mL (≈ 7.68 µM)
Cc1ccnc(NC(=O)COc2ccc(C(C)(C)C)cc2Br)c1	5.61 µg/mL (≈ 14.9 µM)
O=C(CSc1nc2ccccc2c(=O)[nH]1)NCc1ccccc1	0.28 µg/mL (≈ 0.86 µM)
CN(C)S(=O)(=O)c1ccc(NC(=S)NC(=O)CCCOc2ccc(Cl)cc2Cl)cc1	5.38 µg/mL (≈ 11 µM)
CN(C)C(=S)Nc1nc2ccccc2s1	< 0.1 µg/mL
COc1cccc(Nc2nc(-c3ccccn3)cs2)c1	0.17 µg/mL (≈ 0.6 µM)
CCCCOc1ccc(S(=O)(=O)Nc2ccc(C)c(Cl)c2)cc1	5.13 µg/mL (≈ 14.5 µM)
COc1ccccc1C1=Nc2cccc3cccc(c23)N1	0.24 µg/mL (≈ 0.875 µM)
COC(=O)C1=C(C)NC2=C(C(=O)CC(c3ccccc3)C2)C1c1ccccc1Br (stereo not drawn)	7.5 µg/mL (≈ 16.6 µM)
CCC(=O)Oc1cccc2ccc(/C=C/c3ccc4c(c3)OCO4)nc12	0.17 µg/mL (≈ 0.489 µM)
C/C=C/c1ccc(OCCCOc2cccc3ccc(C)nc23)c(OC)c1	16.8 µg/mL (≈ 46.3 µM)
Cc1ccc(-c2csc(Nc3ccc(S(N)(=O)=O)cc3)n2)cc1	2.52 µg/mL (≈ 7.29 µM)
COC(=O)C(C)Oc1ccc2c(=O)c(Oc3ccccc3Cl)coc2c1 (stereo not drawn)	8.57 µg/mL (≈ 22.9 µM)

SMILES	IC50
Cc1cccc(Nc2nc(-c3ccccn3)cs2)n1	< 0.1 µg/mL
Cc1ccc(C(=O)Nc2nc(-c3ccccc3)c(-c3ccccc3)o2)cc1	< 0.1 µg/mL
CC(C)OC(=O)COc1ccc(C(=O)NCc2ccccc2)cc1	0.91 µg/mL (≈ 2.78 µM)
O=C(OCc1ccccc1Cl)C1(O)c2ccccc2-c2ccccc21	2.76 µg/mL (≈ 7.87 µM)
COC(=O)COc1ccc(NC(=O)COc2ccc(C)cc2C)cc1	< 0.1 µg/mL
COc1ccc(Br)cc1C(=O)Nc1ccc(N2CCN(C(=O)C(C)C)CC2)c(Cl)c1	5.08 µg/mL (≈ 10.3 µM)
Oc1ccc(Cl)cc1C1=NNC(c2ccccc2Cl)C1 (stereo not drawn)	0.65 µg/mL (≈ 2.12 µM)
CCC(C)Oc1ccc(C(=O)NC(=S)Nc2ccc(NC(=O)c3ccco3)cc2)cc1 (stereo not drawn)	0.36 µg/mL (≈ 0.823 µM)
COc1ccc(CC(=O)Nc2ccc(-c3nc4ccccc4c(=O)o3)cc2)cc1	15.1 µg/mL (≈ 39 µM)
O=C(CSc1ccc(F)cc1)Nc1ccccc1F	5.83 µg/mL (≈ 20.9 µM)
Cc1ccc2c(c1)c1c(n2CC(O)CN2CCCCCC2)C(=O)CCC1 (stereo not drawn)	6.18 µg/mL (≈ 17.4 µM)
O=C(NC(=S)Nc1ccccc1N1CCCC1)c1cccc2ccccc12	0.36 µg/mL (≈ 0.959 µM)
COC(=O)c1ccc(CSc2nnc(-c3ccccc3)o2)o1	> 50 µg/mL (inactive)
Clc1ccc(OCCn2ccnc2)cc1Cl	7.53 µg/mL (≈ 29.3 µM)
Cc1ccc(Cl)cc1N1CCN(CC(O)COc2ccc(C(=O)c3ccccc3)cc2)CC1 (stereo not drawn)	2.94 µg/mL (≈ 6.32 µM)
C=C1C2(C(=O)Nc3nc4ccc(Br)cc4s3)CCC(C2)C1(C)C (stereo not drawn)	11.4 µg/mL (≈ 29.1 µM)
Cc1cccc(Nc2nc(N)nc(CN3CCN(c4cccc(Cl)c4)CC3)n2)c1	0.39 µg/mL (≈ 0.951 µM)
Cc1ccc2nc(-c3ccncc3)cc(C(=O)Nc3ccncc3)c2c1	> 50 µg/mL (inactive)
CN1CCC(O)(c2cccs2)C(C(=O)c2cccs2)C1 (stereo not drawn)	1.54 µg/mL (≈ 5.01 µM)
CC(=O)c1ccc(NC(=O)Nc2cc(OCC(F)(F)F)cc(OCC(F)(F)C(F)F)c2)cc1	2.74 µg/mL (≈ 5.68 µM)
CCc1ccc(-c2nn(-c3ccccc3)cc2CO)cc1	5.36 µg/mL (≈ 19.3 µM)
Cc1ccc(SCC(=O)Nc2ccc(C)c(C)c2)cc1	3.4 µg/mL (≈ 11.9 µM)
CCCOc1ccc(C2Oc3ccc(Br)cc3C=C2[N+](=O)[O-])cc1OC (stereo not drawn)	1.48 µg/mL (≈ 3.52 µM)
CC(=O)c1ccc2[nH]c3ccc(C(C)=O)cc3c2c1	0.2 µg/mL (≈ 0.796 µM)

SMILES	IC50
Cc1cccc(NC(=O)c2cc(-c3cccs3)nc3ccccc23)n1	1.82 µg/mL (≈ 5.27 µM)
COC(=O)CSc1nnc(NC(=O)c2ccc(C(C)(C)C)cc2)s1	< 0.1 µg/mL
O=C(CCCC(=O)N1CCC(Cc2ccccc2)CC1)N1CCC(Cc2ccccc2)CC1	12.1 µg/mL (≈ 27.1 µM)
COc1ccc2oc(=O)c(C(=O)Oc3ccc(Cl)cc3)cc2c1	> 50 µg/mL (inactive)
COC(=O)COc1ccc(C2CCCCC2)cc1	1.46 µg/mL (≈ 5.88 µM)
O=S(=O)(Nc1cccc2cccnc12)c1ccc(Br)cc1	0.4 µg/mL (≈ 1.1 µM)
COc1ccc(C2CC(=O)Nc3ccc4ccccc4c32)c(I)c1O (stereo not drawn)	3.48 µg/mL (≈ 7.82 µM)
CCOC(=O)c1c(-c2cccs2)csc1NC(=O)c1cc2ccccc2oc1=O	4.76 µg/mL (≈ 11.2 µM)
CCc1nc2ccccc2n1CC(O)COc1ccc(I)cc1 (stereo not drawn)	1.97 µg/mL (≈ 4.67 µM)
CC(=O)Nc1ccc2cccc(O)c2n1	0.96 µg/mL (≈ 4.75 µM)
Clc1ccc(Cn2ncc3c(NCc4ccccc4)ncnc32)cc1	6.27 µg/mL (≈ 17.9 µM)
O=[N+]([O-])c1ccc(NCCNc2nc3ccccc3nc2N2CCOCC2)cc1	1.64 µg/mL (≈ 4.16 µM)
CCOC(=O)CCc1c(C)c(C#N)c2[nH]c3ccccc3n2c1=O	< 0.1 µg/mL
CCc1nc2ccccc2n1CCCOc1ccccc1	0.5 µg/mL (≈ 1.78 µM)
CCOC(=O)c1c(-c2ccccc2)oc2ccc(O)c(CN3CCCC3)c12	3.37 µg/mL (≈ 9.22 µM)
Cc1c(C(=O)c2ccccc2)sc2nc(-c3ccccc3)nc(N)c12	7.76 µg/mL (≈ 22.5 µM)
O=c1oc(-c2ccccc2F)nc2sc3c(c12)CCCC3	> 50 µg/mL (inactive)
CCCn1nnnc1NC(=O)c1cccs1	1.67 µg/mL (≈ 7.04 µM)
Oc1ccc(CNc2ccccc2O)cc1	1.02 µg/mL (≈ 4.74 µM)
Nc1ncnc(Sc2nc3ccccc3s2)c1[N+](=O)[O-]	0.5 µg/mL (≈ 1.64 µM)
Cc1cc(C)nc(/N=C(\N)Nc2ccccc2Sc2ccccc2)n1	> 50 µg/mL (inactive)
COc1ccc(-c2ccc(C#N)c(SCC(=O)OCc3ccccc3)n2)cc1	14.3 µg/mL (≈ 36.5 µM)
